# Assay: Permeation behaviour through excised rat skin in Franz type cell
# Format: in vitro ADME, Wistar rats
# Details: conclusion from comparison with estradiol
# Method: The materials used were as follows:
# The excised abdominal rat skin was mounted on a Franz type cell (receiver volume: 3ml) with a water jacket connected to a water bath at 37° C. The patch was adhered to the stratum comeum side of the skin. The receiver compartment was filled with a mixture of PEG400 and water (1:3 by volume) and stirred with a star head magnetic bead driven by a constant speed motor. At predetermined times, 100 μl of sample was withdrawn from the receiver compartment, and the same volume of receptor solution was added to keep the volume constant. The drug concentration was analysed by HPLC.
# For all adhesives, the amount of the drug which had permeated increased steadily with time.
row,SMILES,skin permeability (in words)
1,"CC12CCC3C(C1CCC2=O)[C@@H](O)C[C@H]1C[C@@H](O)CCC31C (stereo partly drawn) [7β-OH EPIA, 7β-hydroxy-epiandrosterone]",potential skin permeability
2,"C[C@]12CCC(=O)C=C1CC[C@@H]1[C@@H]2[C@@H](O)C[C@]2(C)C(=O)CC[C@@H]12 [HAD, 11β-hydroxy-4-androstene-3,17-dione]",potential skin permeability

# — US20070231373A1, “Transdermal Steriod for Formulation” (HUNTER-FLEMING LIMITED, priority 2004, published 2007)
